# Legend:
# Assay in all cases: PRESTO-Tango GPCR screen
# Type in all cases: cell-based
# Settings in all cases: 100 µM
# [1] = biological target: T1, TAAR8 (Homo sapiens, UniProt Q969N4)
# T1 construct: purchased PRESTO-Tango GPCR kit (Roth lab / Addgene)
# Experimental: (§1) The PRESTO-Tango analyses were performed as previously published. Briefly, HTLA cells, a HEK293 cell line that stably expresses β-arrestin-TEV and tTA-Luciferase (a kind gift from Gilad Barnea, Brown University), were plated in 96-well tissue culture plates (Eppendorf) in DMEM containing 10% FBS and 1% Penicillin/Streptomycin. One day after plating (after reaching approximately 90% confluence), 200 ng per well GPCR-Tango plasmids[37] in 20 μL DMEM were individually mixed with 400 ng polyethylenimine (Polysciences) in an equal volume of DMEM and incubated for 20 min at room temperature before adding the transfection mixture to the HTLA cells. 16-24 h after transfection, medium was replaced with 180 μL fresh DMEM containing 1% Penicillin/Streptomycin and 10 mM HEPES and 20 μL of 3 or 3-Homo to reach a final concentration of 100 μM. Supernatants were aspirated 20 h after stimulation and 50 μl per well of Bright-Glo solution (Promega) diluted 20-fold with PBS containing 20 mM HEPES was added into each well. After 15 min incubation at room temperature, luminescence was quantified using a Spectramax i3x microplate reader (Molecular Devices). Activation fold for each sample was calculated by dividing relative luminescence units (RLU) for each condition by RLUs from PBS control. Dose response curves of each chemical were performed in a similar way with varying the ligand concentration from 10^−4 M to 10^−15 M.
# [2] = biological target: T2, DRD3 (Homo sapiens, UniProt P35462)
# T2 construct: purchased PRESTO-Tango GPCR kit (Roth lab / Addgene)
# Experimental: as §1
# [3] = biological target: T3, MRGPRE (Homo sapiens, UniProt Q86SM8)
# T3 construct: purchased PRESTO-Tango GPCR kit (Roth lab / Addgene)
# Experimental: as §1
# [4] = biological target: T4, PRRP (Homo sapiens, UniProt P49683)
# T4 construct: purchased PRESTO-Tango GPCR kit (Roth lab / Addgene)
# Experimental: as §1
# [5] = biological target: T5, S1PR4 (Homo sapiens, UniProt O95977)
# T5 construct: purchased PRESTO-Tango GPCR kit (Roth lab / Addgene)
# Experimental: as §1
# [6] = biological target: T6, TAAR6 (Homo sapiens, UniProt Q96RI8)
# T6 construct: purchased PRESTO-Tango GPCR kit (Roth lab / Addgene)
# Experimental: as §1
# [7] = biological target: T7, GRM1 (Homo sapiens, UniProt Q13255)
# T7 construct: purchased PRESTO-Tango GPCR kit (Roth lab / Addgene)
# T7 sequence (Q13255 19-1194): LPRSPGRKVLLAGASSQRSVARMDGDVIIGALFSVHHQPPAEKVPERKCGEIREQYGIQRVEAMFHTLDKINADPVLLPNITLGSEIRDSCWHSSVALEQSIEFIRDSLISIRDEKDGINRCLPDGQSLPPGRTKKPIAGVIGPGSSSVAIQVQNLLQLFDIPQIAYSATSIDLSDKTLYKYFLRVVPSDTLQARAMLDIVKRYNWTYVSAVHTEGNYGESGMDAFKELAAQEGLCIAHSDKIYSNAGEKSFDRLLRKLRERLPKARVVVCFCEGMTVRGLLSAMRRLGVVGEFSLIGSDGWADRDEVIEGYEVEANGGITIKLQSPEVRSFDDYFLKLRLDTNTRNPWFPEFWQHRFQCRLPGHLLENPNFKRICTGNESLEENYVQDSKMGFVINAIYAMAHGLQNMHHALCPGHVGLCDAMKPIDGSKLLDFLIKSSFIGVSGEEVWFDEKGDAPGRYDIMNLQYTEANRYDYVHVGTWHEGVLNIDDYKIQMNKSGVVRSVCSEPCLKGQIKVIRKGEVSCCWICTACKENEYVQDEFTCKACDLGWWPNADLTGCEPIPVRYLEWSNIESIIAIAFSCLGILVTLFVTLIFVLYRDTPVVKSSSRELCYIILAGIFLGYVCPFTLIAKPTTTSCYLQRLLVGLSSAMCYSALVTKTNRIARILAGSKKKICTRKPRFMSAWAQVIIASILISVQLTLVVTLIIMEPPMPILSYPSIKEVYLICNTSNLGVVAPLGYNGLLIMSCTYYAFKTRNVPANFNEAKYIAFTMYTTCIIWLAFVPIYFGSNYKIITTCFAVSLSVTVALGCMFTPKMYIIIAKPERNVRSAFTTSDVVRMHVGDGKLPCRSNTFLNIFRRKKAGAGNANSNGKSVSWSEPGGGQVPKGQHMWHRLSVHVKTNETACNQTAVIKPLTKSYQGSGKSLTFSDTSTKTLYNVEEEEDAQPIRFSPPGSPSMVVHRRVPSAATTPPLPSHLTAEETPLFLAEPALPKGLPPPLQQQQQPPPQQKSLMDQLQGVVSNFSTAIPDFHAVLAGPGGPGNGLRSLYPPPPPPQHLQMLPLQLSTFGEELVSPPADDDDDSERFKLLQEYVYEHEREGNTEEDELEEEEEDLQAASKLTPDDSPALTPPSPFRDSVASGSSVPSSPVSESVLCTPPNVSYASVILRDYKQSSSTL
# Experimental: as §1
# [8] = biological target: T8, GPR115 (Homo sapiens, UniProt Q8IZF3)
# T8 construct: purchased PRESTO-Tango GPCR kit (Roth lab / Addgene)
# Experimental: as §1
# [9] = biological target: T9, CX3C1 (Homo sapiens, UniProt P49238)
# T9 construct: purchased PRESTO-Tango GPCR kit (Roth lab / Addgene)
# Experimental: as §1
# [10] = biological target: T10, AGTR1 (Homo sapiens, UniProt P30556)
# T10 construct: purchased PRESTO-Tango GPCR kit (Roth lab / Addgene)
# Experimental: as §1
# [11] = biological target: T11, GRM4 (Homo sapiens, UniProt Q14833)
# T11 construct: purchased PRESTO-Tango GPCR kit (Roth lab / Addgene)
# Experimental: as §1
# [12] = biological target: T12, MRGPRX1 (Homo sapiens, UniProt Q96LB2)
# T12 construct: purchased PRESTO-Tango GPCR kit (Roth lab / Addgene)
# Experimental: as §1
# [13] = biological target: T13, HTR2B (Homo sapiens, UniProt P41595)
# T13 construct: purchased PRESTO-Tango GPCR kit (Roth lab / Addgene)
# Experimental: as §1
# [14] = biological target: T14, GPR123 (Homo sapiens, UniProt Q86SQ6)
# T14 construct: purchased PRESTO-Tango GPCR kit (Roth lab / Addgene)
# Experimental: as §1
# [15] = biological target: T15, ADORA1 (Homo sapiens, UniProt P30542)
# T15 construct: purchased PRESTO-Tango GPCR kit (Roth lab / Addgene)
# Experimental: as §1
# [16] = biological target: T16, P2RY14 (Homo sapiens, UniProt Q15391)
# T16 construct: purchased PRESTO-Tango GPCR kit (Roth lab / Addgene)
# T16 sequence (Q15391 whole entry, one chain of several): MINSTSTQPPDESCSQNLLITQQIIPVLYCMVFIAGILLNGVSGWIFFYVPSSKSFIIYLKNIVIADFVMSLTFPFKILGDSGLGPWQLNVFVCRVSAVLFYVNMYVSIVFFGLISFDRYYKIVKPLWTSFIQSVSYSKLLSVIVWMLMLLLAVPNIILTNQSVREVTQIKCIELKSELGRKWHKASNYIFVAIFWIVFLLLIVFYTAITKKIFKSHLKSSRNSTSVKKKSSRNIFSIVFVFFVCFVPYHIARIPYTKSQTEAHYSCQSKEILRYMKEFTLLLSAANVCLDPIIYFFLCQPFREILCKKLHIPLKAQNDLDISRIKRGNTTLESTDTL
# Experimental: as §1
# [17] = biological target: T17, CCR4 (Homo sapiens, UniProt P51679)
# T17 construct: purchased PRESTO-Tango GPCR kit (Roth lab / Addgene)
# T17 sequence (P51679 whole entry): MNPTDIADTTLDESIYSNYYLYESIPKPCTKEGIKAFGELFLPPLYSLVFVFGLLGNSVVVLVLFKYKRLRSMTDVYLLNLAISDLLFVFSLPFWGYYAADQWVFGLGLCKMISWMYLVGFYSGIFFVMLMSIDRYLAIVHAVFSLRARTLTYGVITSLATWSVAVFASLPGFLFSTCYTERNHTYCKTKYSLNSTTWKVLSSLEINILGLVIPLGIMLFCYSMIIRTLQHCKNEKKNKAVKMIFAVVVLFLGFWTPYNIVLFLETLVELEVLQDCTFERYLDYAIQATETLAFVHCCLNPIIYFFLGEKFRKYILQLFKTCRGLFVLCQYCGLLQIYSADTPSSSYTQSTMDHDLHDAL
# Experimental: as §1
# [18] = biological target: T18, SSTR1 (Homo sapiens, UniProt P30872)
# T18 construct: purchased PRESTO-Tango GPCR kit (Roth lab / Addgene)
# Experimental: as §1
# [19] = biological target: T19, NPBW2 (Homo sapiens, UniProt P48146)
# T19 construct: purchased PRESTO-Tango GPCR kit (Roth lab / Addgene)
# Experimental: as §1
# [20] = biological target: T20, GPRC5C (Homo sapiens, UniProt Q9NQ84)
# T20 construct: purchased PRESTO-Tango GPCR kit (Roth lab / Addgene)
# T20 sequence (Q9NQ84 24-441): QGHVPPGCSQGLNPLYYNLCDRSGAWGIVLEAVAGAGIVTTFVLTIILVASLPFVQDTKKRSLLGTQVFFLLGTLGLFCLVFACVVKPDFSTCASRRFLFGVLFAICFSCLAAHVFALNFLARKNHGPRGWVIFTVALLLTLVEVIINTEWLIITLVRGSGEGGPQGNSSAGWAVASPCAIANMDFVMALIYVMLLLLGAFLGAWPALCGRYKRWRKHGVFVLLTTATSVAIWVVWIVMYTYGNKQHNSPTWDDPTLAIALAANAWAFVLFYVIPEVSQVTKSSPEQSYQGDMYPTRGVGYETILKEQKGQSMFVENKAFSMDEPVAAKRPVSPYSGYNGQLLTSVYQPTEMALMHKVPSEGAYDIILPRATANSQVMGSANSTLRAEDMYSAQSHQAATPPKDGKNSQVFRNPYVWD
# Experimental: as §1
# [21] = biological target: T21, LTB4R (Homo sapiens, UniProt Q15722)
# T21 construct: purchased PRESTO-Tango GPCR kit (Roth lab / Addgene)
# T21 sequence (Q15722 whole entry): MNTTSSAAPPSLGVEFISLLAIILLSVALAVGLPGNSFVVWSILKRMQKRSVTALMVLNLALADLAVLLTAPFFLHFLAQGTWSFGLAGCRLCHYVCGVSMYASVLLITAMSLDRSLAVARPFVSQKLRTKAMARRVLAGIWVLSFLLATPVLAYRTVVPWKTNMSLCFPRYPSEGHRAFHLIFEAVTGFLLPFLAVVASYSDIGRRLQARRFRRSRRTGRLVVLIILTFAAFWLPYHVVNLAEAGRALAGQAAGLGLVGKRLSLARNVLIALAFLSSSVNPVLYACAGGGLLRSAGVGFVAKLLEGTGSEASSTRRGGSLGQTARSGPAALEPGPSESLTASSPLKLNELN
# Experimental: as §1
# [22] = biological target: T22, GPR37 (Homo sapiens, UniProt O15354)
# T22 construct: purchased PRESTO-Tango GPCR kit (Roth lab / Addgene)
# Experimental: as §1
# [23] = biological target: T23, CHRM3 (Homo sapiens, UniProt P20309)
# T23 construct: purchased PRESTO-Tango GPCR kit (Roth lab / Addgene)
# Experimental: as §1
# [24] = biological target: T24, HCA3 (Homo sapiens, UniProt P49019)
# T24 construct: purchased PRESTO-Tango GPCR kit (Roth lab / Addgene)
# Experimental: as §1
# [25] = biological target: T25, GPRC6A (Homo sapiens, UniProt Q5T6X5)
# T25 construct: purchased PRESTO-Tango GPCR kit (Roth lab / Addgene)
# Experimental: as §1
# [26] = biological target: T26, AGTR2 (Homo sapiens, UniProt P50052)
# T26 construct: purchased PRESTO-Tango GPCR kit (Roth lab / Addgene)
# Experimental: as §1
# [27] = biological target: T27, GPR3 (Homo sapiens, UniProt P46089)
# T27 construct: purchased PRESTO-Tango GPCR kit (Roth lab / Addgene)
# T27 sequence (P46089 whole entry): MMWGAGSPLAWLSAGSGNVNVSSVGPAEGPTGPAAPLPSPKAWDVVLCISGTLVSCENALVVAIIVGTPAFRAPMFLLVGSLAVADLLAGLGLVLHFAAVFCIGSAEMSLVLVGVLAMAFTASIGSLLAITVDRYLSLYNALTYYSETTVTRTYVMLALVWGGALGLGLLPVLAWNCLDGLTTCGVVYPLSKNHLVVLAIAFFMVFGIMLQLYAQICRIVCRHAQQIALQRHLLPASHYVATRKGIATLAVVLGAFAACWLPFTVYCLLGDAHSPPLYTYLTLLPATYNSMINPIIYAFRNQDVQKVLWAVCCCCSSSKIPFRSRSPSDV
# Experimental: as §1
# [28] = biological target: T28, CCR3 (Homo sapiens, UniProt P51677)
# T28 construct: purchased PRESTO-Tango GPCR kit (Roth lab / Addgene)
# T28 sequence (P51677 whole entry): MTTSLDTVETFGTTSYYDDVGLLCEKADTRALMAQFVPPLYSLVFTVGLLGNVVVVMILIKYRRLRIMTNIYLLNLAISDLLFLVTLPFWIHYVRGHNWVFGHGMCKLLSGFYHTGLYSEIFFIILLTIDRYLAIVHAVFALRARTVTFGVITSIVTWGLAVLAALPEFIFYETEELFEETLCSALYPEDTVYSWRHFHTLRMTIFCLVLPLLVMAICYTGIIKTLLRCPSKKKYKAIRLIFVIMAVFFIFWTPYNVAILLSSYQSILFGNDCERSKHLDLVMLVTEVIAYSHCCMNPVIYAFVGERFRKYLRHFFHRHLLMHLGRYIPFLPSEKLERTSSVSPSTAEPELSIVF
# Experimental: as §1
# [29] = biological target: T29, OPN5 (Homo sapiens, UniProt Q6U736)
# T29 construct: purchased PRESTO-Tango GPCR kit (Roth lab / Addgene)
# T29 sequence (Q6U736 whole entry): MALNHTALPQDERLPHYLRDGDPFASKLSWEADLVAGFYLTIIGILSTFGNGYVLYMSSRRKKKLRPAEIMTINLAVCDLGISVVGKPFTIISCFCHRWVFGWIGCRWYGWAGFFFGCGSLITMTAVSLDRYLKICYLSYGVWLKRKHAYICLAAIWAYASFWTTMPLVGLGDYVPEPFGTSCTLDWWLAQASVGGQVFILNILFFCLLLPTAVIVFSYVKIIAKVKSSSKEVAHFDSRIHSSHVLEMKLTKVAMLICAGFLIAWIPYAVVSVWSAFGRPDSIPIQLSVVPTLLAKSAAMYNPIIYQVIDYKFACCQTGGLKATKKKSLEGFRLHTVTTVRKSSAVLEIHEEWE
# Experimental: as §1
# [30] = biological target: T30, FFA2 (Homo sapiens, UniProt O15552)
# T30 construct: purchased PRESTO-Tango GPCR kit (Roth lab / Addgene)
# T30 sequence (O15552 whole entry): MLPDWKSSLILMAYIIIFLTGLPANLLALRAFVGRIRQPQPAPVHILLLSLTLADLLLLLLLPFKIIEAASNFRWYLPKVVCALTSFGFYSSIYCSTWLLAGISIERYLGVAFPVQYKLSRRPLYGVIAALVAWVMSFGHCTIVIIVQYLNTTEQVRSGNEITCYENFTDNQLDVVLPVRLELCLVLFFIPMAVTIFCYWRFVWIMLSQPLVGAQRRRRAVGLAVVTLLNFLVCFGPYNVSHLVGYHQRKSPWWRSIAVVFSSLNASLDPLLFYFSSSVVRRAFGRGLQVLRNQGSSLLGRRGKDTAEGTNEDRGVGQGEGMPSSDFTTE
# Experimental: as §1
# [31] = biological target: T31, HTR1B (Homo sapiens, UniProt P28222)
# T31 construct: purchased PRESTO-Tango GPCR kit (Roth lab / Addgene)
# Experimental: as §1
# [32] = biological target: T32, S1PR5 (Homo sapiens, UniProt Q9H228)
# T32 construct: purchased PRESTO-Tango GPCR kit (Roth lab / Addgene)
# Experimental: as §1
# [33] = biological target: T33, MRGPRF (Homo sapiens, UniProt Q96AM1)
# T33 construct: purchased PRESTO-Tango GPCR kit (Roth lab / Addgene)
# Experimental: as §1
# [34] = biological target: T34, NPY5R (Homo sapiens, UniProt Q15761)
# T34 construct: purchased PRESTO-Tango GPCR kit (Roth lab / Addgene)
# T34 sequence (Q15761 whole entry): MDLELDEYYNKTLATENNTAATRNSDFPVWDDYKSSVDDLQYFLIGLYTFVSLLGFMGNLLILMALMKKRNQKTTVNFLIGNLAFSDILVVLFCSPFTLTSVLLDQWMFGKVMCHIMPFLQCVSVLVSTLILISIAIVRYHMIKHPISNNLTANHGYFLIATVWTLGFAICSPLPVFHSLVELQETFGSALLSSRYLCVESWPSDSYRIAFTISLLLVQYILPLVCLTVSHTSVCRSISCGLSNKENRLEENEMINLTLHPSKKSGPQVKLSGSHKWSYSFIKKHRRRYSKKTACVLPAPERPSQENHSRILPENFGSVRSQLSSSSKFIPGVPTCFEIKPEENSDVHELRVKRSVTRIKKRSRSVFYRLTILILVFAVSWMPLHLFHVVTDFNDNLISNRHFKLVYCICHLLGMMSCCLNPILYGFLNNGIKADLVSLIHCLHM
# Experimental: as §1
# [35] = biological target: T35, PTGIR (Homo sapiens, UniProt P43119)
# T35 construct: purchased PRESTO-Tango GPCR kit (Roth lab / Addgene)
# Experimental: as §1
# [36] = biological target: T36, CMKLR1 (Homo sapiens, UniProt Q99788)
# T36 construct: purchased PRESTO-Tango GPCR kit (Roth lab / Addgene)
# Experimental: as §1
# T1 sequence (Q969N4 whole entry): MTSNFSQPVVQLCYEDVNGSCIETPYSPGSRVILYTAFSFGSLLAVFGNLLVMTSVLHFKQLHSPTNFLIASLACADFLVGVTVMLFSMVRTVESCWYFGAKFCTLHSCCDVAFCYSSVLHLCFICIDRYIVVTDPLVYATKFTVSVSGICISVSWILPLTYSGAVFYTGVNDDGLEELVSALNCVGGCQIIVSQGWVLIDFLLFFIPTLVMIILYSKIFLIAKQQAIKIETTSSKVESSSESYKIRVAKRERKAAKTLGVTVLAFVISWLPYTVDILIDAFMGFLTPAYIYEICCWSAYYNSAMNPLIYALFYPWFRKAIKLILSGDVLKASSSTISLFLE
SMILES,GPCR activation (heatmap value) [1],GPCR activation (heatmap value) [2],GPCR activation (heatmap value) [3],GPCR activation (heatmap value) [4],GPCR activation (heatmap value) [5],GPCR activation (heatmap value) [6],GPCR activation (heatmap value) [7],GPCR activation (heatmap value) [8],GPCR activation (heatmap value) [9],GPCR activation (heatmap value) [10],GPCR activation (heatmap value) [11],GPCR activation (heatmap value) [12],GPCR activation (heatmap value) [13],GPCR activation (heatmap value) [14],GPCR activation (heatmap value) [15],GPCR activation (heatmap value) [16],GPCR activation (heatmap value) [17],GPCR activation (heatmap value) [18],GPCR activation (heatmap value) [19],GPCR activation (heatmap value) [20],other results
CC(C)Cc1ncc(CCCCNC(=N)N)[nH]c1=O [3-Homo],-0.2862,0.04182,0.8539,1.001,0.5734,0.5054,-0.1347,-0.2915,0.09565,0.01764,-0.1574,0.1239,-0.5052,-0.1319,0.08121,0.07991,0.4296,-0.2346,-0.3796,0.07279,GPCR activation (heatmap value) [21]: 0.1103; GPCR activation (heatmap value) [22]: -0.008314; GPCR activation (heatmap value) [23]: 0.5889; GPCR activation (heatmap value) [24]: -0.8056; GPCR activation (heatmap value) [25]: -1.019; GPCR activation (heatmap value) [26]: 0.1974; GPCR activation (heatmap value) [27]: -1.589; GPCR activation (heatmap value) [28]: -0.05608; GPCR activation (heatmap value) [29]: -0.4496; GPCR activation (heatmap value) [30]: -0.3322; GPCR activation (heatmap value) [31]: -0.02426; GPCR activation (heatmap value) [32]: -0.7802; GPCR activation (heatmap value) [33]: 0.9987; GPCR activation (heatmap value) [34]: -0.26; GPCR activation (heatmap value) [35]: -0.205; GPCR activation (heatmap value) [36]: -1.034
CC(C)Cc1ncc(CCCNC(=N)N)[nH]c1=O [compound 3],0.314,0.613,1.264,1.542,0.1012,0.2505,0.374,0.3053,0.5532,0.0619,-0.2331,-1.215,-0.6262,-0.4576,0.2527,0.6085,-0.299,0.2369,-0.2074,0.188,GPCR activation (heatmap value) [21]: -0.07274; GPCR activation (heatmap value) [22]: -0.4356; GPCR activation (heatmap value) [23]: -0.8614; GPCR activation (heatmap value) [24]: -0.032; GPCR activation (heatmap value) [25]: -0.9035; GPCR activation (heatmap value) [26]: -0.3239; GPCR activation (heatmap value) [27]: -0.8156; GPCR activation (heatmap value) [28]: -0.6954; GPCR activation (heatmap value) [29]: -1.123; GPCR activation (heatmap value) [30]: -0.009625; GPCR activation (heatmap value) [31]: 0.5899; GPCR activation (heatmap value) [32]: 0; GPCR activation (heatmap value) [33]: 0.6496; GPCR activation (heatmap value) [34]: 0.08813; GPCR activation (heatmap value) [35]: 0.2177; GPCR activation (heatmap value) [36]: 0.8088

# — article PMC11480411, “Mucosal sugars delineate pyrazine vs pyrazinone autoinducer signaling in Klebsiella oxytoca” (Nature Communications, 2024)
